Measurements from PMC3466212, “Novel AChE Inhibitors for Sustainable Insecticide Resistance Management” (PLoS ONE, 2012).
Where two headings read alike, the source gives them in different places.

What was measured:
F331W AChE1 = biological target: T1, F331W AChE1 (Culex pipiens, UniProt Q86GC8, F457W); format: biochemical; conditions: F331W OP-insensitive AChE1
T1 construct: made in house; host or cells: Drosophila S2 cells
Procedure: (§1) Production of C. pipiens WT and mutated AChE1s in Drosophila S2 cells was already described. The chemical library (ChemBridge, 3,000 compounds) screening was performed in duplicate on G119S recombinant AChE1. Chemicals were made soluble in ethanol or dimethylsulphoxide (DMSO), and then diluted at 300 µM in ethanol for storage. Compounds (30 µM final concentration) were incubated for 15 min at room temperature with 100 µl of G119S recombinant AChE1 then 100 µl of substrate (acetylthiocholine, 1.6 mM, Sigma-Aldrich) was added and the residual activity was quantified by measuring the optical density at 412 nm, as described by Ellman et al.. PTF analogs were analyzed in dose-response experiments (10-fold serial dilutions from 3 mM to 30 nM), using recombinant WT and G119S AChE1 or mosquito head extracts (heads cut from frozen mosquitoes, homogenized in 400 µl PB containing 1% Triton X-100 and cleared by centrifugation at 9,000×g for 3 min). Depending on compound availability, two to five replicates were performed with distinct batches of enzyme. […] IC50 was estimated by nonlinear least square regression. IC50 was also measured on AChE1 from susceptible and resistant mosquito larvae extracts.
(§2) a numbers refer to Table S1
(§3) b IC50 values were determined from regression analysis of log-concentrations versus

F290V AChE1 = biological target: T2, F290V AChE1 (Culex pipiens, UniProt Q86GC8, F416V); format: biochemical; conditions: F290V OP-insensitive AChE1
T2 construct: made in house; host or cells: Drosophila S2 cells
Procedure: as §1, §2, §3

[1] = test system: C. pipiens SR strain larvae; assay: Larval bioassay, SR strain (OP-resistant); conditions: for LD50 SR: C. pipiens OP-resistant ace-1 R/R larvae; for Mortality at 300 µM, SR: fourth-instar larvae, 24 hours exposure
WT AChE1 [2] = biological target: T3, WT AChE1 (Culex pipiens, UniProt Q86GC8); conditions: read-out: Kic WT; dissociation constant of enzyme-inhibitor complex; five independent replicates
Procedure: (§4) To identify inhibitors of G119S AChE1, we screened a 3,000-compound chemical library using an assay adapted to a microplate format, [26]. […] For simplification, these compounds will be termed from now as PTF (PyrimidineTrione Furan-substituted) and were classified depending on the substituted positions (Table S1).
(§5) WT and G119S recombinant AChE1s were incubated with 0.25 mM, 0.5 mM or 1 mM inhibitor. Residual activity of G119S (A and C) and WT (B and D) AChE1 was measured in the presence of various concentrations of PTF-20 and substrates. Enzymatic activity was analyzed using the graphical method developed by Dixon, representing reciprocal rates (1/v) (A and B) or reciprocal rates multiplied by substrate concentrations ([S]/v) (C and D) as a function of inhibitor concentration. (PDF) Click here for additional data file.
(§6) Table S3. Dissociation constants (Kic) of enzyme-inhibitor complexes.
as §2
(§7) b data were measured from five independent replicates.
(§8) c competitive inhibitor reference

G119S AChE1 [3] = biological target: T4, G119S AChE1 (Culex pipiens, UniProt Q86GC8, G247S); assay: biochemical; format: biochemical
T4 construct: made in house; host or cells: Drosophila S2 cells

[4] = test system: C. pipiens Ducos strain larvae; assay: Larval bioassay, Ducos strain (ace-1 duplication); format: in vivo, Culex pipiens; conditions: C. pipiens OP-resistant ace-1 D (duplication) larvae
Source text: (§9) Three C. pipiens strains were used: the susceptible reference Slab strain, homozygous for ace-1 ^S [39], the resistant reference SR strain, carrying the genetical background of Slab but homozygous for the G119S mutation, allele ace-1 ^R [21] and the Ducos strain, carrying the genetical background of Slab but homozygous for an ace-1 duplication, with one ace-1^S and ace-1^R copy in tandem. Culex pipiens heterozygous larvae (Slab×SR) were obtained by crossing Slab males and SR females. Two A. gambiae reference strains (S molecular form) were used: the susceptible strain Kisumu, homozygous for ace-1 ^S, collected in Kenya in 1953 and maintained since then under laboratory conditions and the resistant Acerkis strain, carrying the genetical background of Kisumu but homozygous for an ace-1^R allele from a population collected in Bobo-Dioulasso, Burkina Faso [41].
(§10) Insecticidal activity was determined by performing bioassays on fourth-instar larvae as described in [42]. Each compound was dissolved in ethanol. Propoxur (CX) and chlorpyrifos (OP) were used as references. For each compound, we first tested mortality after a 24-hour exposure at 300 µM. […] Mortality data were analyzed by the log-probit program. This program takes into account natural mortality and provides lethal doses (LD) and slopes for each mortality line; it also computes resistance ratios (RR) for each LD, with 95% confidence intervals.

[5] = test system: C. pipiens Slab strain larvae; assay: Larval bioassay, Slab strain (OP-susceptible); conditions: for LD50 Slab: C. pipiens OP-susceptible ace-1 S/S larvae, four to five replicates; for Mortality at 300 µM, Slab: fourth-instar larvae, 24 hours exposure
[6] = test system: A. gambiae Acerkis strain larvae; assay: Larval bioassay, Acerkis strain (OP-resistant); format: in vivo, Anopheles gambiae; conditions: A. gambiae OP-resistant ace-1 R/R larvae
Source text: as §9, §10

G119S AChE1 [7] = biological target: T4, G119S AChE1; format: biochemical; conditions: dissociation constant of enzyme-inhibitor complex; five independent replicates; read-out: Kic G119S
Procedure: as §4
Reversibility was tested using a rapid dilution procedure. Residual activity of WT (white bars) and G119S (grey bars) AChE1 were measured after 15 min incubation in presence of inhibitors (striped bars) and are expressed as percentages of control activity. […] Assays were then diluted ten times and residual activity was measured (open bars). Means and standard errors for three independent experiments are shown. (PDF) Click here for additional data file.
as §5, §6, §2, §7, §8

WT AChE1 [8] = biological target: T3, WT AChE1; assay: AChE assay (Ellman), dose-response on recombinant WT AChE1; format: biochemical; design: made in house; host or cells: Drosophila S2 cells
Outline: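 Enzyme expressed in Drosophila S2 cells; compounds tested in 10-fold serial dilutions from 3 mM to 30 nM. Ellman read-out at 412 nm with acetylthiocholine (1.6 mM as added, after 15 min room-temperature preincubation in the screening format). IC50 by nonlinear least-squares regression; 2–5 replicates with distinct enzyme batches.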

[9] = test system: A. gambiae Kisumu strain larvae; assay: Larval bioassay, Kisumu strain (OP-susceptible); format: in vivo, Anopheles gambiae; conditions: A. gambiae OP-susceptible ace-1 S/S larvae
Source text: as §9, §10

[10] = test system: C. pipiens F1 (SR×Slab) heterozygous larvae; assay: Larval bioassay, heterozygous F1 (SR×Slab); format: in vivo, Culex pipiens; conditions: C. pipiens heterozygous ace-1 R/ace-1 S larvae
Source text: as §9, §10

[11] = recombinant OP-insensitive G119S C. pipiens AChE1, 15 min incubation, acetylthiocholine, read-out: IC50 G119S
[12] = recombinant wild-type C. pipiens AChE1, 15 min incubation, acetylthiocholine, read-out: IC50 WT

Structure (SMILES)	IC50 (F331W AChE1) [µM]	IC50 (F290V AChE1) [µM]	LD50 SR [1] [µM]	Mortality at 300 µM, SR [1] [%]	Ki (WT AChE1 [2]) [µM]	IC50 (G119S AChE1 [3]; [11]) [µM]	LD50 Ducos [4] [µM]	LD50 Slab [5] [µM]	Mortality at 300 µM, Slab [5] [%]	LD50 Acerkis [6] [µM]	Ki (G119S AChE1 [7]) [µM]	IC50 (WT AChE1 [8]; [12]) [µM]	LD50 Kisumu [9] [µM]	LD50 F1 (SR×Slab) [10] [µM]	mortality at 300 µM ([1]; Culex pipiens, 24 h, read-out: Mortality at 300 µM, SR) [%]	IC50 (G119S AChE1 [3]) [µM]	mortality at 300 µM ([5]; Culex pipiens, 24 h, read-out: Mortality at 300 µM, Slab) [%]	IC50 (WT AChE1 [8]) [µM]
Cc1ccc(C=C2C(=O)NC(=O)N(c3ccccc3)C2=O)o1 [PTF-3]	17.8	12.4	143.0	78	127 ± 2.8	6.2	162.1	310.0	43	86.6	21.8 ± 1.9	29.4	109.7	151.3				
COc1ccc(N2C(=O)NC(=O)C(=Cc3ccc(C)o3)C2=O)cc1 [PTF-10]	88.2	85.9	206.0	87	88.2 ± 4.2	81.4	232.8	300.0	14	50.6	64.5 ± 1.8	592	388.3	207.1				
Cc1cccc(N2C(=O)C(=Cc3ccc(C)o3)C(=O)NC2=S)c1 [PTF-25]	31.9	39.3	70.1	68	131 ± 3.1	28.6	130.8	160.8	32	12.6	24.9 ± 0.6	442	46.1	60.0				
COc1cccc(N2C(=O)C(=Cc3ccc(C)o3)C(=O)NC2=S)c1 [PTF-29]	11.2	37.4	398.8	63	17.1 ± 6.8	33.5	409.0	946.0	27	67.7	8.9 ± 2.7	118	164.4	105.1				
CNC(=O)Oc1ccccc1OC(C)C [Propoxur, reference compound]			2100				56.7	1.6		689.6			0.1	2.3	0	26500	100	0.3
